Where “and” joins values, the source holds several entries; their conditions need not be identical. Identical values can stand only once. Marks after values point to notes of the source that are not given here.
Assays:
[1] = system: NF-kB; test: Immunohistochemistry, frontal cortex: NF-kB; format: in vivo, mice
Source text: (§1) Following the acute death or the sacrifice of the animals (after 5-h observation period by dislocation of the spine), brains were taken. These were fixed in 4% buffered formalin and then sampled and incorporated into the paraffin (Leica ASP300 processor, Histoline TEC2900 incorporator; Leica Microsystems Srl, Buccinasco, Milano, Italy). Subsequently, the cut (performed with the Leica HistoCore autocut microtome; Leica Microsystems Srl, Buccinasco, Milano, Italy) was designed to create sections with a thickness of 5 µm for each sample.
(§2) On 5-µm-thick paraffined […] sections, we evaluated the expression of a panel of markers: heat shock proteins (HSP27, HSP70, HSP90), SMAC/DIABLO, NF-kB, iNOS, NOX-2, NT, 8-OHDG.
(§3) We used a detection system composed of a biotinylated secondary antibody and HRP-conjugated streptavidin (4plus HRP Universal Detection, Biocare Medical). […] In the pictures (sections of the frontal cortex; Figure 3, Figure 4 and Figure 5) to evaluate the variation in the expression of markers (Smac, NOX2, iNOS, 8-OHdG, NT, HSP27, HSP70, HSP90) following treatments, the change in intensity of brown colour (staining of the immunohistochemical technique) in the control and treated tissue was measured. Quantification of Smac, NOX2, iNOS, 8-OHdG, NT, HSP27, HSP70 and HSP90 positive-stained areas was performed by the ImageJ software (imagej.nih.gov/ij/ Accessed date 12 May 2020). […]

[2] = system: HSP90; test: Immunohistochemistry, frontal cortex: HSP90; format: in vivo, mice; details: vs control
Source text: as §1, §2, §3

[3] = system: HSP27; test: Immunohistochemistry, frontal cortex: HSP27; format: in vivo, mice
Source text: as §1, §2
We used a detection system composed of a biotinylated secondary antibody and HRP-conjugated streptavidin (4plus HRP Universal Detection, Biocare Medical). 3′-,3Diaminobenzidine (DAB) and H2O2 (Betazoid DAB Chromogen Kit, Biocare Medical, Concord, CA, USA) were used as chromogen/substrate. The subsequent counterstaining with haematoxylin–eosin allowed the visualization of cell morphology and nuclei. Once this procedure was completed, the slides were mounted and observed under optical microscope. In the pictures (sections of the frontal cortex; Figure 3, Figure 4 and Figure 5) to evaluate the variation in the expression of markers (Smac, NOX2, iNOS, 8-OHdG, NT, HSP27, HSP70, HSP90) following treatments, the change in intensity of brown colour (staining of the immunohistochemical technique) in the control and treated tissue was measured. Quantification of Smac, NOX2, iNOS, 8-OHdG, NT, HSP27, HSP70 and HSP90 positive-stained areas was performed by the ImageJ software (imagej.nih.gov/ij/ Accessed date 12 May 2020). […] Positivity was expressed as an extension of the stained analysed area.
Sweating and salivation were expressed as frequency (e.g., % of animals that developed symptoms); psychomotor agitation was expressed as frequency (% of animals) and duration (total time in mins). Core temperature values were expressed as the difference between control temperature (before injection) and temperature following drug administration (Δ°C). Aggressiveness was expressed as frequency (% of animals which become aggressive) and score (number of bites). Convulsions were expressed as frequency (% of animals that developed seizure), episodes (e.g., number of seizure events), latency of first episode (sec.) and duration of each episode (sec.). Lethality was expressed as frequency (% of animals that died during the observation period (5 h) or during the following 24 h). […] Regarding immunohistochemical analysis, positivity was expressed as the extension of stained analysed area. Results were expressed as means ± mean standard error (SEM). […]

[4] = system: mice; test: Core temperature (rectal probe), hyperthermia; format: in vivo
Method: The effects of (±)cis-4,4′-DMAR, (±)trans-4,4′-DMAR and their co-administration were investigated by a protocol widely used in studies of “safety pharmacology” for the preclinical characterization of new molecules in rodents. This protocol includes a series of observational behavioural tests carried out in a consecutive manner that monitor the animal responses up to 5 h after compound injections. In the present study, we reported the observation of physiological (sweating, salivation, core temperature) and neuro-behavioural (detection of psychomotor agitation, spontaneous and stimulated aggressiveness, convulsions) changes occurring in mice after injection of (±)cis-4,4′-DMAR, (±)trans-4,4′-DMAR and their co-administration. Before pharmacological treatment the mouse was placed on a square plate (30 cm× 30 cm) raised from the ground (20 cm) and left free to move on the plate for 10 min (habituation period). The animal was then injected with the vehicle, substances alone ((±)cis-4,4′-DMAR or (±)trans-4,4′-DMAR) or in cis + trans co-administration and placed on the plate. From this moment, the recording time of the physiological and neuro-behavioural responses started, and these were detected in 5-min sessions.
After the first 5 min, the animal was removed from the plate; the body core temperature was then measured, and the aggression tests were performed. The 5-min observation period was repeated at 15–30–60–90–120–180–240–300. Psychomotor agitation in the mouse was not simply related to an increase in spontaneous locomotion itself, but by an “unusual hyperactivity” which was characterised by rapid and sudden horizontal displacements in all directions, sustained turning behaviour, involuntary falls from the high plate during the evaluation of the tests, stereotyped movements and rearing activity. Mouse sweating and salivation were reported only if present or not. The core temperature was determined using a probe (1 mm diameter) that was gently inserted after lubrication with liquid Vaseline into the rectum of the mouse (to about 2 cm) and left in position until the temperature stabilised (about 10 s). The probe was connected to a digital thermometer. Spontaneous aggressive response was measured based on the number of times a mouse bit a grey cloth put in front of its snout. During the test, each mouse was free to move within the cage. In the case of stimulated aggressiveness, each mouse was manually restrained and held in a supine position following which an object was brought near the mouth. For both spontaneous and stimulated aggressive behaviour tests, a grey cloth was placed in front of the nose of each mouse 10 consecutive times (score 0/10 not aggressive, score 10/10 very aggressive). Convulsions were defined as a loss of righting reflexes for at least 5 s, combined with the presence of body tremors and clonic or tonic limb movements. Deaths caused by 4-4’-DMAR injection occurring during the observation period (5 h) were also reported as frequency (%) and time of death (min). Experiments were conducted inside the LARP (Centralised Preclinical Research Laboratory, University of Ferrara, Ferrara, Italy) in a thermo-stated (temperature 20–22 °C, humidity about 45–55%) and light controlled (about 150 lux) room, in which there was a background noise of about 40 ± 4 dB. The experiments, conducted in blind by trained observers working together in pairs, were videotaped and eventually analysed off-line by a different trained operator. The experiments were performed between 8:30 a.m. and 2:00 p.m.
Sweating and salivation were expressed as frequency (e.g., % of animals that developed symptoms); psychomotor agitation was expressed as frequency (% of animals) and duration (total time in mins). Core temperature values were expressed as the difference between control temperature (before injection) and temperature following drug administration (Δ°C). […]

[5] = 10 mg/kg i.p., n=4 mice (animals of the urine excretion study)

SMILES: Cc1ccc(C2OC(N)=NC2C)cc1 (stereo not drawn) [cis-4,4’-DMAR, 4-methyl-5-(4-methylphenyl)-4,5-dihydrooxazol-2-amine]
- Immunoreactivity of NF-kB in the frontal cortex ([1]; 10, 30 and 60 mg/kg, vs control): increased
- Immunoreactivity of HSP90 in the frontal cortex ([2]; 10 and 30 mg/kg): reduced
- Immunoreactivity of HSP27 in the frontal cortex ([3]; 10 mg/kg alone): ineffective
- Immunoreactivity of HSP27 in the frontal cortex ([3]; 30 and 60 mg/kg, vs control): increased
- Immunoreactivity of HSP27 in the frontal cortex ([3]; 30 and 60 mg/kg, vs control, listed as (±)cis): overexpressed
- Hyperthermia Variation (Δ°C) ([4]; 0.1 mg/kg i.p., n=6 mice): −0.18 ± 0.14 Δ°C
- Hyperthermia Variation (Δ°C) ([4]; 1 mg/kg i.p., n=6 mice): −0.22 ± 0.17 Δ°C
- Hyperthermia Variation (Δ°C) ([4]; 3 mg/kg i.p., n=6 mice): −0.34 ± 0.22 Δ°C
- Hyperthermia Variation (Δ°C) [4, 5]: −0.21 ± 0.15 Δ°C
- Hyperthermia Variation (Δ°C) ([4]; 10 mg/kg i.p., n=6 mice): −0.41 ± 0.13 Δ°C
- Hyperthermia Latency ([4]; 30 mg/kg i.p., n=6 mice): 25 ± 0.25 min
- Hyperthermia Variation (Δ°C) ([4]; 30 mg/kg i.p., n=6 mice): 1.52 ± 0.11 ^c Δ°C
- Hyperthermia Variation (Δ°C) ([4]; 30 mg/kg i.p., n=6 mice, listed as (±)cis-4,4′-DMAR): 1.52 ± 0.11 Δ°C
- Hyperthermia Latency ([4]; 60 mg/kg i.p., n=6 mice): 7.12 ± 0.23 min
- Hyperthermia Latency (min) ([4]; 60 mg/kg i.p., n=6 mice): 7.12 ± 0.23 ^d min
- Hyperthermia Variation (Δ°C) ([4]; 60 mg/kg i.p., n=6 mice): 2.22 ± 0.12 ^c Δ°C and 2.22 ± 0.12 Δ°C
- Hyperthermia Variation (Δ°C) ([4]; 60 mg/kg i.p., n=6 mice, listed as (±)cis-4,4′-DMAR): 2.22 ± 0.12 Δ°C
- Hyperthermia ([4]; lower doses 0.1–10 mg/kg i.p., mice): ineffective

SMILES: Cc1ccc(C2OC(N)=NC2C)cc1 (stereo not drawn) [trans-4,4’-DMAR, 4-methyl-5-(4-methylphenyl)-4,5-dihydrooxazol-2-amine]
- Immunoreactivity of NF-kB in the frontal cortex ([1]; 30 mg/kg alone): ineffective
- Expression of HSP90 in the frontal cortex ([2]; 30 mg/kg alone): reduced
- Immunoreactivity of HSP27 in the frontal cortex ([3]; 30 mg/kg alone): ineffective
- Hyperthermia Variation (Δ°C) [4, 5]: −0.32 ± 0.1 Δ°C
- Hyperthermia Variation (Δ°C) ([4]; 30 mg/kg i.p., n=6 mice): −0.37 ± 0.13 Δ°C
- Hyperthermia Variation (Δ°C) ([4]; 60 mg/kg i.p., n=6 mice): −0.35 ± 0.16 Δ°C

Source: article PMC8395767, “Worsening of the Toxic Effects of (±)Cis-4,4′-DMAR Following Its Co-Administration with (±)Trans-4,4′-DMAR: Neuro-Behavioural, Physiological, Immunohistochemical and Metabolic Studies in Mice” (International Journal of Molecular Sciences, 2021)
